Experimental data: patent US20250326765A1, “PDE4B INHIBITOR AND USE THEREOF” (XIZANG HAISCO PHARMACEUTICAL CO., LTD., priority 2022, published 2025)
Where two headings read alike, the source gives them in different places.

Key:
[1] = target: T1, PDE4B2 (Homo sapiens, UniProt Q07343); experiment: Effect of compounds on PDE4B2 activity (fluorescence polarization kit); type: biochemical
T1 construct: purchased BPS Bioscience 60343
Protocol: The effect of compounds on PDE4B2 activity was detected by a fluorescence polarization kit (BPS Bioscience, Catalog #60343). According to the instructions of the kit, FAM-Cyclic-3′,5′-AMP at a final concentration of […], 1 ng/well of PDE4B2 (PDE buffer was added to the negative control well), and a compound diluted in a gradient manner (PDE buffer containing 10% DMSO was added to the positive control well) were added to each well, fully mixed, and then reacted at room temperature for 1 h. The Binding Agent was diluted with the Binding Agent Diluent (cAMP) at a ratio of 1:100 for later use, the Binding Agent dilution was taken and added to the test plate at 50 μl/well and incubated at room temperature with slow shaking for 20 minutes. After the incubation was complete, Envision was used for FP detection, with Excitation at 480 nm and Emission at 535 nm. FP was usually represented by mP value.
[formula] • I∥ (S535): fluorescence intensity in parallel direction • I⊥ (P535): fluorescence intensity in perpendicular direction • G: G factor=1
(§1) [formula] • mP(sample): mP of the test compound in a reaction well • mP(negative control): mP in the negative control well • mP(positive control): mP in the positive control well
(§2) According to the calculated inhibition rate at each concentration, the IC50 value of each compound was calculated by GraphPad Prism 8 software.

[2] = target: T2, PDE4D2 (Homo sapiens, UniProt Q08499); experiment: Effect of compounds on PDE4D2 activity (fluorescence polarization kit); type: biochemical; settings: class symbols
T2 construct: purchased BPS Bioscience 60345
Protocol: The effect of compounds on PDE4D2 activity was detected by a fluorescence polarization kit (BPS Bioscience, Catalog #60345). During the reaction, 12.5 μL of 0.272 ng/well of an enzyme (final concentration: 0.068 ng/well) and 12.5 μL of the compound diluted in a gradient manner (DMSO concentration: 4%) were first pre-incubated at room temperature for 15 minutes, the same volume of the enzyme at the same concentration and 12.5 μL of PDE buffer containing 4% DMSO were added to the positive control well, and 25 μL of PDE buffer containing 2% DMSO was added to the negative control well. After completion, 25 μL of […] FAM-Cyclic-3′,5′-AMP (final concentration: […]) was added to each well, fully mixed, and then incubated at room temperature with slow shaking for 30 minutes. The Binding Agent was diluted with the Binding Agent Diluent (cAMP) at a ratio of 1:100 for later use, 100 μl/well of the Binding Agent dilution was taken and added to all wells of the test plate and incubated at room temperature with slow shaking for 1 hour.
After the incubation was complete, BMG LRBTECH microplate reader was used for FP detection, with Excitation at 485 nm and Emission at 520 nm. FP was usually represented by mP value.
[formula] • I∥ (S520): fluorescence intensity in parallel direction • I⊥ (P520): fluorescence intensity in perpendicular direction • G: G factor=1
as §1, §2

[3] = target: T3, PDE4B1 (Homo sapiens, UniProt Q07343); experiment: Effect of compounds on PDE4B1 activity (IMAP fluorescence polarization kit); type: biochemical; settings: class symbols
T3 construct: purchased BPS 60041
Protocol: The IMAP Reaction Buffer containing 0.1% BSA (5×) in the kit was diluted into a 1-fold reaction buffer containing 1 mM DTT. 0.12 nM PDE4B1 (BPS, Cat #60041) was added to the 1-fold reaction buffer to form a 2-fold enzyme solution. 10 μL of the 2-fold enzyme solution was added to wells of a 384-well reaction plate. For the negative control well, 10 μL of the 1-fold reaction buffer was used instead of the enzyme solution. Centrifugation at 1000 rpm for 1 minute and incubation at room temperature for 15 minutes were carried out. 0.2 uM FAM-labeled cAMP (FAM-cAMP, Molecular Device, Cat #R7506) was added to the 1-fold reaction buffer to form a 2-fold substrate solution. 10 μL of the 2-fold substrate solution was added to each well of the 384-well reaction plate. Centrifugation at 1000 rpm for 1 minute was carried out. A reaction was carried out at room temperature for 20 minutes. IMAP Progressive Binding Buffer A (5×), IMAP Progressive Binding Buffer B (5×), and IMAP Progressive Binding Reagent (provided by IMAP FP IPP Explorer Kit) were prepared into a reaction stop solution according to the instructions for use. 60 μL of an […] reaction stop solution was added to each well of the 384-well reaction plate to stop the reaction, and the reaction product was centrifuged at 1000 rpm for 1 minute. Incubation at room temperature in the dark for 60 minutes was carried out. The mP values (Ex480/Em535 (s), Em535 (p)) were read by a microplate reader (Envision).
FP was usually represented by mP value. mP value for FP measurement=1000*(S−G*P)/(S+G*P) • S: fluorescence intensity in parallel direction • P: fluorescence intensity in perpendicular direction • G: G factor=1
as §1
According to the calculated inhibition rate at each concentration, the IC50 value of each compound was calculated by XLFit excel add-in version 5.4.0.8 software.
Y=Bottom+(Top−Bottom)/(1+(IC50/X)^HillSlope) Fitting formula: […]

[4] = Pharmacokinetic test in beagle dogs; type: in vivo
Protocol: 6.1 Experimental animals: male beagle dogs, about 8-11 kg, 6 beagle dogs/compound, purchased from Beijing Marshall Biotechnology Co., Ltd.
6.2 Experimental method: On the day of the experiment, 18 beagle dogs were randomly grouped according to their body weights. The animals were fasted with water available for 12-14 h one day before administration and fed 4 h after administration. Administration was carried out according to Table 8.
Before and after administration, 1 ml of blood was taken from the jugular vein or limb vein and placed in an EDTAK2 centrifuge tube. Centrifugation was carried out at 5000 rpm at 4° C. for 10 min, and plasma was collected. The blood collection time points for the intravenous group and intragastric group were both 0 min, 5 min, 15 min, 30 min, 1 h, 2 h, 4 h, 6 h, 8 h, 10 h, 12 h, 24 h, 48 h, and 72 h. Before analysis and detection, all the samples were stored at −80° C., and the samples were subjected to quantitative analysis using LC-MS/MS.

[5] = Pharmacokinetic test in mice; type: in vivo, ICR mice
Protocol: 5.1 Experimental animals: Male ICR mice, 20-25 g, 6 mice/compound. Purchased from Chengdu Ddossy Experimental Animals Co., Ltd.
5.2 Experimental design: On the day of the experiment, 42 ICR mice were randomly grouped according to their body weights. The animals were fasted with water available for 12-14 h one day before administration and fed 4 h after administration.
Before and after administration, 0.06 mL of blood was taken from the orbit under isoflurane anesthesia and placed in an EDTAK2 centrifuge tube for centrifugation at 5000 rpm at 4-C for 10 min, followed by plasma collection. The blood collection time points for the intravenous group and intragastric group were both 0 m, 5 mi, 15 mi, 30 mi, 1 h, 2 h, 4 h, 6 h, 8 h, and 24 h. Before analysis and detection, all the samples were stored at −80° C., and the samples were subjected to quantitative analysis using LC-MS/MS.

[6] = Inhibition of LPS-induced TNF-α release from human peripheral blood mononuclear cells in vitro; type: cell-based; settings: PBMC, hPBMC, 100 ng/mL LPS, 4 h; for IC50: class symbols, read-out: Re IC50 (nM) (relative IC50), TNF-α induced by LPS; for Emax: read-out: Max inhibition (%)
Protocol: Normal human peripheral blood which was anticoagulated (citric acid anticoagulation) was collected, and hPBMCs were prepared by Ficoll-Paque PLUS (Cytiva, Cat #17144002, density 1.077 g/mL). The concentration of hPBMC cells was adjusted to 0.25×10^6 cells/mL with RPMI1640 medium and inoculated into a 96-well plate in an amount of 50000 cells per well. Subsequently, different concentrations of drugs were added for pre-incubation for 1 h (the DMSO final concentration was 0.1%, and the positive and negative control wells had the same volume of RPMI1640 containing 0.1% DMSO). After the pre-incubation was complete, 100 ng/mL LPS (SIGMA, L2630) was added to the compound and positive control wells, and the negative control well had the same volume of RPMI1640 containing 0.1% DMSO. Incubation was carried out for 4 h in an incubator at 37° C. and 5% CO2. The cell supernatant was collected, and the content of TNF-α in the supernatant sample was detected by human TNF-α Elisa quantitative test kit (Sino Biological, Cat #KIT10602). The IC50 value was calculated using GraphPad Prism software.

[7] = class symbols, read-out: PDE4B2 IC50
[8] = male, dog, iv, plasma, i.v. (1 mg/kg)
[9] = male, dog, po, plasma, i.g. (5 mg/kg)
[10] = male, ICR, mouse, iv, plasma, i.v. (5 mg/kg)
[11] = male, ICR, mouse, po, plasma, i.g. (10 mg/kg)

T3 sequence (Q07343 whole entry): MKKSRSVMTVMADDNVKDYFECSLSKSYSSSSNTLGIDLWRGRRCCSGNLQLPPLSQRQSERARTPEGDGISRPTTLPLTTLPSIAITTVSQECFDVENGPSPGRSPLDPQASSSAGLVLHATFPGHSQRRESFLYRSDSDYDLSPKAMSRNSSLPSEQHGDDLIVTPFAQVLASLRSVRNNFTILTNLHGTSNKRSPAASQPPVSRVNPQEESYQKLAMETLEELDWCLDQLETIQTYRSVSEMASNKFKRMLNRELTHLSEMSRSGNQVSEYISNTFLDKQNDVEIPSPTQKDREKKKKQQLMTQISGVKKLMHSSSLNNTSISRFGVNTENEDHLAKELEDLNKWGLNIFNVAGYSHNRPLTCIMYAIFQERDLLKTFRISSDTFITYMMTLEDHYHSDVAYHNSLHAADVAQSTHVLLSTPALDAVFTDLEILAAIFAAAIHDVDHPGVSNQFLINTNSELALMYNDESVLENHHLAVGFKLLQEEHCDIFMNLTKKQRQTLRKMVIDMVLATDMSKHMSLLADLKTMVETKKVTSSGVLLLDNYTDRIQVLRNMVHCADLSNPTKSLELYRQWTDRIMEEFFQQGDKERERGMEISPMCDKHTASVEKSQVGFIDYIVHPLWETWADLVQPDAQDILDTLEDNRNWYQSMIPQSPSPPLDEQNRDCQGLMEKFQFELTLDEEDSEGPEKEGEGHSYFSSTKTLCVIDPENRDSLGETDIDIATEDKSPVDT
T1 sequence (Q07343 1-564 isoform Q07343-2): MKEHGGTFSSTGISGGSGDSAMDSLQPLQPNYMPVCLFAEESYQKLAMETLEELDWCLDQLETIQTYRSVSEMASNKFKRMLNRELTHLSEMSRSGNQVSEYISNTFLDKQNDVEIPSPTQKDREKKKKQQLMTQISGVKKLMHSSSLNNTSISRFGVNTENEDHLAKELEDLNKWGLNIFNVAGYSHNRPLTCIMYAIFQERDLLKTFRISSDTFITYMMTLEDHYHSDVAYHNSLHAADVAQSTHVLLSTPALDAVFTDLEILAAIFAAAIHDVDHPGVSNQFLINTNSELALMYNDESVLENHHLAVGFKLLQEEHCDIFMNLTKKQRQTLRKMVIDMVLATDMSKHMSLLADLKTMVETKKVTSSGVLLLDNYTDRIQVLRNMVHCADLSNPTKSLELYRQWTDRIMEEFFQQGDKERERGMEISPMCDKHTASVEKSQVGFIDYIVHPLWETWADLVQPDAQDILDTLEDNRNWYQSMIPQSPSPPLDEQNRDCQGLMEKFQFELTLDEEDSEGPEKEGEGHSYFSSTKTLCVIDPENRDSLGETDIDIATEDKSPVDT
T2 sequence (Q08499 303-809): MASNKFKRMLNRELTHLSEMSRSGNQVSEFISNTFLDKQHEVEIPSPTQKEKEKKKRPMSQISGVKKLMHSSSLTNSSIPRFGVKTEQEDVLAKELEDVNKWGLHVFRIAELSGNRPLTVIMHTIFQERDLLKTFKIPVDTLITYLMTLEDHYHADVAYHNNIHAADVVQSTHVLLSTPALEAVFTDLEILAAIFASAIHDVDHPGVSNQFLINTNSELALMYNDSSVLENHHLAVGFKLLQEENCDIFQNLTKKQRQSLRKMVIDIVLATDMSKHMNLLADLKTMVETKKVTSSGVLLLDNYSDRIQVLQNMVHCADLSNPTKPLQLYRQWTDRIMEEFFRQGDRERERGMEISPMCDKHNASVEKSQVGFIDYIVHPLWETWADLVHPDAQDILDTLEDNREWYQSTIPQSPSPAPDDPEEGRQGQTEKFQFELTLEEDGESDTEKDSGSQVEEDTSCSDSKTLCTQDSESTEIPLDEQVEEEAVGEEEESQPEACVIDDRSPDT

[O-][S+]1CCc2nc(N3CC4C(C3)C4c3ccc(Cl)cc3)nc(NC3(CO)CCC3)c21 (stereo not shown) [Compound 20]
IC50 [1, 7]: 10 to 50 nM | IC50 [2]: < 10 nM | IC50 [3]: < 10 nM

[O-][S@+]1CCc2nc(N3C[C@H]4CN(c5ncc(Cl)cn5)C[C@H]4C3)nc(NC3(CO)CCC3)c21 [Compound 25]
IC50 [1, 7]: 10 to 50 nM | IC50 [2]: < 10 nM | IC50 [3]: < 10 nM

[O-][S@+]1CCc2nc(N3C[C@H]4CC[C@@H](C3)[C@@H]4c3ccc(Cl)cc3)nc(NC3(CO)CCC3)c21 [Compound 22]
IC50 [1, 7]: 10 to 50 nM | IC50 [2]: 10 to 50 nM | IC50 [3]: 10 to 50 nM

[O-][S@+]1CCc2nc(N3CC=C(c4ccc5c(c4)CC5)CC3)nc(NC3(CO)CCC3)c21 [Compound 26]
IC50 [2]: < 10 nM | IC50 [3]: < 10 nM

[O-][S@+]1CCc2nc(N3CCC=C(c4ccc(Cl)cc4)CC3)nc(NC3(CO)CCC3)c21 [Compound 5]
IC50 [1, 7]: < 10 nM | IC50 ([1]; values in text, read-out: IC50 against PDE4B2): 8.1 nM | IC50 [2]: < 10 nM | F ([4]; i.g. (5 mg/kg)): ≥98% | AUC(0-t) [4, 8]: 1200 ± 210 ng·h/mL | clearance [4, 8]: 13.8 ± 2.3 mL/min/kg | half-life [4, 8]: 3.91 ± 0.037 h | Vd ([4]; male, dog, iv, plasma, i.v. (1 mg/kg), read-out: Vdss): 4.16 ± 0.76 L/kg | AUC(0-t) [4, 9]: 5020 ± 1700 ng·h/mL | half-life [4, 9]: 6.32 ± 2.1 h | F ([5]; i.g. (10 mg/kg)): 91.9 ± 7.5% | AUC(0-t) [5, 10]: 7400 ± 1110 ng·h/mL | clearance [5, 10]: 5.71 ± 0.86 mL/min/kg | half-life [5, 10]: 2.72 ± 0.23 h | Vd ([5]; male, ICR, mouse, iv, plasma, i.v. (5 mg/kg), read-out: Vdss): 1.31 ± 0.12 L/kg | AUC(0-t) [5, 11]: 27200 ± 2230 ng·h/mL | half-life [5, 11]: 3.42 ± 0.16 h

CC1=C(c2ccc(Cl)cc2)CCN(c2nc3c(c(NC4(CO)CCC4)n2)[S+]([O-])CC3)C1 (stereo not shown) [Compound 36]
IC50 [3]: < 10 nM

[O-][S@+]1CCc2nc(N3CC=C(c4ccc(Cl)c5c4CC5)CC3)nc(NC3(CO)CCC3)c21 [Compound 83]
IC50 [6]: < 10 nM | Emax [6]: 77.7% | IC50 [1, 7]: < 10 nM | IC50 [2]: < 10 nM

N#Cc1ccc2c(c1)OCC1CN(c3nc4c(c(NC5(CO)CCC5)n3)[S+]([O-])CC4)CCN21 (single isomer, unassigned) [Compound 74-1]
IC50 [6]: 10 to 50 nM | Emax [6]: 72.4% | IC50 [1, 7]: < 10 nM | IC50 [2]: < 10 nM

[O-][S@+]1CCc2nc(N3Cc4cc5c(cc4C3)CCC5)nc(NC3(CO)CCC3)c21 [Compound 69]
IC50 [6]: 50 to 100 nM | Emax [6]: 74.4% | IC50 [1, 7]: < 10 nM | IC50 [2]: 10 to 50 nM

C#Cc1ccc(C2=CCN(c3nc4c(c(NC5(CO)CCC5)n3)[S@+]([O-])CC4)CC2)nc1 [Compound 70]
IC50 [6]: < 10 nM | Emax [6]: 70.5% | IC50 [1, 7]: < 10 nM | IC50 [2]: < 10 nM

[O-][S@+]1CCc2nc(N3CCC=C(c4ccc5c(c4)CC5)CC3)nc(NC3(CO)CCC3)c21 [Compound 27]
IC50 [2]: < 10 nM | IC50 [3]: < 10 nM

[O-][S+]1CCc2nc(N3CCC4=C(COc5cc(Cl)ccc54)C3)nc(NC3(CO)CCC3)c21 (stereo not shown) [Compound 29]
IC50 [2]: < 10 nM | IC50 [3]: < 10 nM

[O-][S+]1CCc2nc(N3CC=C(c4c(F)cc(Cl)cc4F)CC3)nc(NC3(CO)CCC3)c21 (stereo not shown) [Compound 35]
IC50 [2]: < 10 nM | IC50 [3]: < 10 nM

Cc1nnc(C2=CCN(c3nc4c(c(NC5(CO)CCC5)n3)[S@+]([O-])CC4)CC2)o1 [Compound 55]
IC50 [6]: 10 to 50 nM | Emax [6]: 67.2% | IC50 [1, 7]: < 10 nM | IC50 [2]: < 10 nM
